# Measured values as given in the supplement of paper PMC10307832.
# Tests used:
# Assay in all cases: relative viability (nuclei count vs DMSO), 5 days (fraction); higher = more cells survive
# HCC-15 = tested on: HCC-15
# How it was run: (§1)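 Lung cancer cell lines were pin-tool dosed in 1536-well plates on the day after seeding, with either a lone drug or a fixed anchor-drug dose plus five library-drug doses (not always all listed) in √10 steps. Nuclei were counted on 4× images after 5 days. Relative viability is the ratio of treated-well to vehicle-well nuclei counts, with each value a median of duplicate plates.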
# HCC-366 = tested on: HCC-366
# How it was run: as §1
# NCI-H2126 = tested on: NCI-H2126
# How it was run: as §1
# A-427 = tested on: A-427
# How it was run: as §1
# NCI-H1734 = tested on: NCI-H1734
# How it was run: as §1
# NCI-H2023 = tested on: NCI-H2023
# How it was run: as §1
# NCI-H2009 = tested on: NCI-H2009
# How it was run: as §1
# NCI-H1650 = tested on: NCI-H1650
# How it was run: as §1
# SW 1573 = tested on: SW 1573
# How it was run: as §1
# LOU-NH91 = tested on: LOU-NH91
# How it was run: as §1
# NCI-H441 = tested on: NCI-H441
# How it was run: as §1
# HCC-44 = tested on: HCC-44
# How it was run: as §1
# NCI-H650 = tested on: NCI-H650
# How it was run: as §1
# RERF-LC-KJ = tested on: RERF-LC-KJ
# How it was run: as §1
# NCI-H460 = tested on: NCI-H460
# How it was run: as §1
# HARA = tested on: HARA
# How it was run: as §1
# ChaGo-K-1 = tested on: ChaGo-K-1
# How it was run: as §1
# HCC-78 = tested on: HCC-78
# How it was run: as §1
# COR-L23 = tested on: COR-L23
# How it was run: as §1
# LCLC-97TM1 = tested on: LCLC-97TM1
# How it was run: as §1
# LCLC-103H = tested on: LCLC-103H
# How it was run: as §1
# NCI-H1993 = tested on: NCI-H1993
# How it was run: as §1
# 201T = tested on: 201T
# How it was run: as §1
structure (smiles),measurement,setting,value
Cc1cnc(-c2cnc(NCCNc3ccc(C#N)cn3)nc2-c2ccc(Cl)cc2Cl)[nH]1 + CC(C)C[C@H](NC(=O)[C@H](Cc1ccccc1)NC(=O)c1cnccn1)B(O)O [Bortezomib] (partner 0.002 µM),relative viability,HCC-15; first compound 0.08 µM,1.01
same,relative viability,HCC-15; first compound 0.253 µM,0.575
same,relative viability,HCC-15; first compound 0.8 µM,1
same,relative viability,HCC-15; first compound 2.53 µM,0.969
same,relative viability,HCC-366; first compound 0.08 µM,1.09
same,relative viability,HCC-366; first compound 0.253 µM,0.989
same,relative viability,HCC-366; first compound 0.8 µM,0.967
same,relative viability,HCC-366; first compound 2.53 µM,1.01
same,relative viability,NCI-H2126; first compound 0.08 µM,1.09
same,relative viability,NCI-H2126; first compound 0.253 µM,1.09
same,relative viability,NCI-H2126; first compound 0.8 µM,1.12
same,relative viability,NCI-H2126; first compound 2.53 µM,1.15
same,relative viability,A-427; first compound 0.08 µM,0.972
same,relative viability,A-427; first compound 0.253 µM,1.03
same,relative viability,A-427; first compound 0.8 µM,0.993
same,relative viability,A-427; first compound 2.53 µM,0.975
same,relative viability,NCI-H1734; first compound 0.08 µM,0.942
same,relative viability,NCI-H1734; first compound 0.253 µM,0.897
same,relative viability,NCI-H1734; first compound 0.8 µM,0.87
same,relative viability,NCI-H1734; first compound 2.53 µM,0.734
same,relative viability,NCI-H2023; first compound 0.08 µM,1.44
same,relative viability,NCI-H2023; first compound 0.253 µM,0.651
same,relative viability,NCI-H2023; first compound 0.8 µM,1.01
same,relative viability,NCI-H2023; first compound 2.53 µM,0.978
same,relative viability,NCI-H2009; first compound 0.08 µM,1.02
same,relative viability,NCI-H2009; first compound 0.253 µM,0.682
same,relative viability,NCI-H2009; first compound 0.8 µM,1.07
same,relative viability,NCI-H2009; first compound 2.53 µM,0.891
same,relative viability,NCI-H1650; first compound 0.08 µM,0.207
same,relative viability,NCI-H1650; first compound 0.253 µM,0.214
same,relative viability,NCI-H1650; first compound 0.8 µM,0.24
same,relative viability,NCI-H1650; first compound 2.53 µM,0.207
same,relative viability,SW 1573; first compound 0.08 µM,1.09
same,relative viability,SW 1573; first compound 0.253 µM,0.899
same,relative viability,SW 1573; first compound 0.8 µM,1.13
same,relative viability,SW 1573; first compound 2.53 µM,0.925
same,relative viability,LOU-NH91; first compound 0.08 µM,0.488
same,relative viability,LOU-NH91; first compound 0.253 µM,0.519
same,relative viability,LOU-NH91; first compound 0.8 µM,0.491
same,relative viability,LOU-NH91; first compound 2.53 µM,0.491
same,relative viability,NCI-H441; first compound 0.08 µM,0.688
same,relative viability,NCI-H441; first compound 0.253 µM,0.352
same,relative viability,NCI-H441; first compound 0.8 µM,0.707
same,relative viability,NCI-H441; first compound 2.53 µM,0.617
same,relative viability,HCC-44; first compound 0.08 µM,0.851
same,relative viability,HCC-44; first compound 0.253 µM,0.855
same,relative viability,HCC-44; first compound 0.8 µM,0.91
same,relative viability,HCC-44; first compound 2.53 µM,0.932
same,relative viability,NCI-H650; first compound 0.08 µM,0.707
same,relative viability,NCI-H650; first compound 0.253 µM,0.819
same,relative viability,NCI-H650; first compound 0.8 µM,0.838
same,relative viability,NCI-H650; first compound 2.53 µM,0.744
same,relative viability,RERF-LC-KJ; first compound 0.08 µM,1.27
same,relative viability,RERF-LC-KJ; first compound 0.253 µM,1
same,relative viability,RERF-LC-KJ; first compound 0.8 µM,0.804
same,relative viability,RERF-LC-KJ; first compound 2.53 µM,0.931
same,relative viability,NCI-H460; first compound 0.08 µM,1.18
same,relative viability,NCI-H460; first compound 0.253 µM,1
same,relative viability,NCI-H460; first compound 0.8 µM,1.07
same,relative viability,NCI-H460; first compound 2.53 µM,0.968
same,relative viability,HARA; first compound 0.08 µM,1.05
same,relative viability,HARA; first compound 0.253 µM,1.09
same,relative viability,HARA; first compound 0.8 µM,1.08
same,relative viability,HARA; first compound 2.53 µM,1.08
same,relative viability,ChaGo-K-1; first compound 0.08 µM,1.07
same,relative viability,ChaGo-K-1; first compound 0.253 µM,0.886
same,relative viability,ChaGo-K-1; first compound 0.8 µM,0.598
same,relative viability,ChaGo-K-1; first compound 2.53 µM,0.991
same,relative viability,HCC-78; first compound 0.08 µM,0.645
same,relative viability,HCC-78; first compound 0.253 µM,0.457
same,relative viability,HCC-78; first compound 0.8 µM,0.443
same,relative viability,HCC-78; first compound 2.53 µM,0.41
same,relative viability,COR-L23; first compound 0.08 µM,1.04
same,relative viability,COR-L23; first compound 0.253 µM,0.997
same,relative viability,COR-L23; first compound 0.8 µM,1.14
same,relative viability,COR-L23; first compound 2.53 µM,0.943
same,relative viability,LCLC-97TM1; first compound 0.08 µM,0.844
same,relative viability,LCLC-97TM1; first compound 0.253 µM,0.647
same,relative viability,LCLC-97TM1; first compound 0.8 µM,0.709
same,relative viability,LCLC-97TM1; first compound 2.53 µM,0.362
same,relative viability,LCLC-103H; first compound 0.08 µM,1.08
same,relative viability,LCLC-103H; first compound 0.253 µM,1.04
same,relative viability,LCLC-103H; first compound 0.8 µM,0.983
same,relative viability,LCLC-103H; first compound 2.53 µM,0.912
same,relative viability,NCI-H1993; first compound 0.08 µM,1.23
same,relative viability,NCI-H1993; first compound 0.253 µM,1.07
same,relative viability,NCI-H1993; first compound 0.8 µM,1.1
same,relative viability,NCI-H1993; first compound 2.53 µM,1.26
same,relative viability,201T; first compound 0.08 µM,1.12
same,relative viability,201T; first compound 0.253 µM,0.973
same,relative viability,201T; first compound 0.8 µM,1.14
same,relative viability,201T; first compound 2.53 µM,1.1
